The text below walks through data of patent US7728029B2, “Adamantyl-pyrazole carboxamides as inhibitors of 11β-hdroxysteroid dehydrogenase” (Hoffmann-La Roche Inc., priority 2006, dated 2010).

The target of assay [1] is T1, human 11betaHSD1 (Homo sapiens, UniProt P28845).
T1 construct: stably transfected with full-length human 11betaHSD1 cDNA; expressed in transfected cells; host or cells: HEK-293
Nature of the assay: Human Hek Assay: cortisone to cortisol conversion in HEK-293 cells stably transfected with human 11betaHSD1, cortisol by ELISA. Type of assay: cell-based. As to conditions: HEK-293 cells transfected with human 11betaHSD1; 100 nM cortisone, 1 hour; read-out: humHEK (IC50). As for the experimental part: HEK-293 cells stably transfected with full-length human 11betaHSD1 cDNA were propagated and expanded in DMEM high glucose media (Invitrogen Cat# 11995-065), supplemented with 10% FCS (Invitrogen Cat# 10082-147), pen/strep (10 μg/mL), and geneticin (10 μg/mL). One day prior to assay, cells were released from flasks using trypsin/EDTA, centrifuged, and washed with plating media (DMEM high glucose, without phenol red; Invitrogen Cat# 21063-029, supplemented with 2% charcoal stripped FCS; Gemini Cat# A22311P). From a 250,000 cells/mL suspension in plating media, 200 μL of cells were seeded into each well of a 96-well coated plate (BioCoat Cat#356461) and cultured overnight at 37° C. The following day, serially diluted 11betaHSD1 inhibitor compounds dissolved in DMSO were added to plating media supplemented with BSA (2 mg/mL final). The final DMSO concentration was 1%. Media was aspirated from plates, and compounds in media were added to each well. The plates were incubated at 37 degrees C. for 1 hour to allow for cellular uptake of compounds. 10 μL of substrate (cortisone) was then added to each well (100 nM final concentration) and incubated for 1 hour at 37 degrees C. Plates were then transferred to ice and 80 μL of media transferred to a 96-well plate and stored at −30° C.
Quantitation of cortisol in cell media was performed by competitive ELISA using ELISA-Light (Tropix Cat# T10206/EL100S4), anti-cortisol EIA antibody (Assay Designs, Inc. Cat#80-1148), and cortisol-enzyme conjugate (Assay Designs, Inc. Cat# 80-1147). 384-well plates (Falcon Cat#3988) were precoated with anti-mouse IgG (Sigma Cat# M-1397) suspended in 0.9% NaCl (5 mg/mL), 50 μL per well, overnight at 4 degrees C. Plates were washed with PBS, 0.1% Tween-20, then washed with PBS alone. Plates were blocked with Blocking Buffer (Tropix Cat# AI075) for 2 hours at room temperature. The plates were then washed as previously described. Assay samples were thawed, diluted 1:4 in DMEM, 2 mg/mL BSA, 1% DMSO, and 24 μL was transferred to wells of a pre-coated 384-well plate, as well as varying amounts of cortisol standard. To each well, 12 μL of cortisol-conjugate and 12 μL of anti-cortisol EIA antibody were added and incubated 2 hrs at room temperature on a orbital plate shaker. The wells were then emptied by inversion, then washed three times with 100 μL of Wash Buffer (Tropix), and then 2 times with 100 μL of Assay Buffer (Tropix). 60 μL of CDP-STAR (Tropix) was added to each well and incubated 10 minutes at room temperature. Chemiluminescence was measured using a Victor V Reader (Perkin Elmer). Cortisol in each sample was interpolated from a standard curve generated with known amounts of cortisol. IC50 values were calculated using the curve fitting software XLFit3 (IDBS).
A general note: ELISA stands for enzyme-linked immunosorbent assay.

Assay [2] deals with T2, human 11-β-HSD1 (Homo sapiens, UniProt P28845).
T2 construct: expressed in transfected cells; host or cells: H4IIe
As to the kind of experiment: Human H4IIE Assay: steroid conversion assay in H4IIe cells stably transfected with human 11-β-HSD1 cDNA, cortisol by ELISA. The class given is cell-based. As to conditions: H4IIe cells transfected with human 11-β-HSD1; 200 nM cortisone, 120 minutes; read-out: HumH4IIe (IC50). The procedure:
H4IIe cells stably transfected with the human 11-β-HSD1 cDNA (humH4IIe) were maintained in Dulbeccos Modified Essential Medium (DMEM)+10% fetal bovine serum (FBS) containing Penicillin (100 IU/ml) and Streptomycin (100 μg/ml), Geneticin (800 μg/ml) and L-Glutamine (2 mM) at 37° C. in a humidified atmosphere (95% air, 5% CO2).
humH4IIe cells at 80% confluence in a 225 cm^2 flask were washed with PBS then detached with warm Trypsin/EDTA. The cells were counted and resuspended in Dulbeccos Modified Essential Medium lacking phenol red (DMEM) containing 2% stripped serum, at a concentration of 100,000 cells per 200 μl, and plated in a 96-well cell culture plate (precoated with Poly-Lysine). The cells were incubated overnight at 37° C. in a humidified atmosphere (95% air, 5% CO2).
Conversion assays were performed one day after seeding 96-well plates. The media was removed and replaced with 100 ul Dulbeccos Modified Essential Medium without phenol red (DMEM) containing 2 mg/ml Bovine Serum Albumin (BSA)+1% DMSO or test compound dissolved in DMSO.
The cells were incubated with test compound for 60 minutes at 37° C. in a humidified atmosphere (95% air, 5% CO2). After 60 minutes, cortisone was added to 200 nM final, and the cells were incubated for 120 minutes at 37° C. in a humidified atmosphere (95% air, 5% CO2).
The reaction was stopped by transferring 80 μl of media to an empty 96-well plate. Samples were stored at −20° C. until assayed for cortisol concentration using an ELISA method.

One may read the IC50 as the concentration at which inhibition is half-maximal.

T1 sequence (P28845 whole entry): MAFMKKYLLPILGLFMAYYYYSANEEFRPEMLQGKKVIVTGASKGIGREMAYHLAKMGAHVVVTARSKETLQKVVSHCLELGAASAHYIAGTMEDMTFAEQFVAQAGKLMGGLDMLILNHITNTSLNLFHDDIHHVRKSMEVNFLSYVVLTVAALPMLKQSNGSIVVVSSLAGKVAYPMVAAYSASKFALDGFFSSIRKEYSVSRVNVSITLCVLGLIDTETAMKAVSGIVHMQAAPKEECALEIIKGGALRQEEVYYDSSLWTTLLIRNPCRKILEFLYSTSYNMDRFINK
T2 sequence (P28845 whole entry): as above

Regarding `Cn1ncc(C(=O)NC2C3CC4CC2CC(O)(C4)C3)c1-n1cccc1` (stereo not shown) [Example 1, 1-methyl-5-pyrrol-1-yl-1H-pyrazole-4-carboxylic acid (5-hydroxy-adamantan-2-yl)-amide], the IC50 in assay [1] turned out to be 39.9 nM.
Same read-out and setting: then `Cn1ncc(C(=O)N[C@H]2C3CC4CC2C[C@](O)(C4)C3)c1-n1cccc1` [Example 2, trans-1-Methyl-5-pyrrol-1-yl-1H-pyrazole-4-carboxylic acid (5-hydroxy-adamantan-2-yl)-amide], with 22.2 nM; and `Cn1ncc(C(=O)NC2C3CC4CC(C3)CC2C4)c1Cl` (stereo not shown) [Example 5, 5-Chloro-1-methyl-1H-pyrazole-4-carboxylic acid adamantan-2-ylamide], with 189 nM.
In the case of `CC(C)(C)n1ncc(C(=O)NC2C3CC4CC(C3)CC2C4)c1C(F)(F)F` (stereo not shown) [Example 6, 1-tert-butyl-5-trifluoromethyl-1H-pyrazole-4-carboxylic acid adamantan-2-ylamide], the IC50 in assay [1] stood at 9.8 nM.
Consider `CC(C)(C)n1ncc(C(=O)N[C@H]2C3CC4CC2C[C@](O)(C4)C3)c1C(F)(F)F` [Example 7, trans-1-tert-butyl-5-trifluoromethyl-1H-pyrazole-4-carboxylic acid (5-hydroxy-adamantan-2-yl)-amide], for which the IC50 in assay [1] stood at 601 nM.
On the same count and under the same terms, then `CC(C)(C)n1ncc(C(=O)N[C@H]2C3CC4CC2C[C@@](O)(C4)C3)c1C(F)(F)F` [Example 8, cis-1-tert-butyl-5-trifluoromethyl-1H-pyrazole-4-carboxylic acid (5-hydroxy-adamantan-2-yl)-amide], with 20.2 nM; and `Cn1ncc(C(=O)N[C@H]2C3CC4CC2C[C@](O)(C4)C3)c1-n1cccn1` [Example 9, trans-2′-Methyl-2′H-[1,3′]bipyrazolyl-4′-carboxylic acid (5-hydroxy-adamantan-2-yl)-amide], with 38.6 nM; and `O=C(NC1C2CC3CC(C2)CC1C3)c1cnn(C2CC2)c1C(F)(F)F` (stereo not shown) [Example 12, 1-cyclopropyl-5-trifluoromethyl-1H-pyrazole-4-carboxylic acid adamantan-2-ylamide], with 22.2 nM.
The same measure, in the same setting: then `CN1CCN(c2c(C(=O)NC3C4CC5CC(C4)CC3C5)cnn2C)CC1` (stereo not shown) [Example 14, 1-Methyl-5-(4-methyl-piperazin-1-yl)-1H-pyrazole-4-carboxylic acid adamantan-2-ylamide], with 23.3 nM; and `Cn1ncc(C(=O)NC2C3CC4CC(C3)CC2C4)c1N1CCOCC1` (stereo not shown) [Example 22, 1-methyl-5-morpholin-4-yl-1H-pyrazole-4-carboxylic acid adamantan-2-ylamide], with 16.6 nM; and `COCCNc1c(C(=O)NC2C3CC4CC(C3)CC2C4)cnn1C` (stereo not shown) [Example 23, 5-(2-Methoxy-ethylamino)-1-methyl-1H-pyrazole-4-carboxylic acid adamantan-2-ylamide], with 71.5 nM.
Same read-out and setting: then `COCCN(C)c1c(C(=O)NC2C3CC4CC(C3)CC2C4)cnn1C` (stereo not shown) [Example 32, 5-[(2-Methoxy-ethyl)-methyl-amino]-1-methyl-1H-pyrazole-4-carboxylic acid adamantan-2-ylamide], with 26.2 nM; and `CC(C)(C)n1ncc(C(=O)NC2C3CC4CC(C3)CC2C4)c1-n1cccn1` (stereo not shown) [Example 33, 2′-tert-Butyl-2′H-[1,3′]bipyrazolyl-4′-carboxylic acid adamantan-2-ylamide], with 6.8 nM.
Regarding `CC(C)(C)n1ncc(C(=O)N[C@H]2C3CC4CC2C[C@](O)(C4)C3)c1Cl` [Example 34, trans-1-tert-Butyl-5-chloro-1H-pyrazole-4-carboxylic acid (5-hydroxy-adamantan-2-yl)-amide], the IC50 amounted to 19.2 nM in assay [1] and 5.6 nM in assay [2].
Regarding `CC(C)(C)n1ncc(C(=O)N[C@H]2C3CC4CC2C[C@](O)(C4)C3)c1-n1cccn1` [Example 35, trans-2′-tert-Butyl-2′H-[1,3′]bipyrazolyl-4′-carboxylic acid (5-hydroxy-adamantan-2-yl)-amide], the IC50 worked out at 20 nM in assay [1] and 0.5 nM in assay [2].
As to `CC(=O)NC12CC3CC(C1)C(NC(=O)c1cnn(C(C)(C)C)c1Cl)C(C3)C2` (stereo not drawn) [Example 46, trans-1-tert-Butyl-5-chloro-1H-pyrazole-4-carboxylic acid (5-acetylamino-adamantan-2-yl)-amide], the values for the IC50 in assay [1] and in assay [2] were 66.2 nM and 8.5 nM, respectively.
Take `CC(=O)NC12CC3CC(C1)C(NC(=O)c1cnn(C(C)(C)C)c1C(F)(F)F)C(C3)C2` (stereo not drawn) [Example 48, trans-1-tert-Butyl-5-trifluoromethyl-1H-pyrazole-4-carboxylic acid (5-acetylamino-adamantan-2-yl)-amide]: the half-inhibitory concentration (IC50) stood at 18.1 nM in assay [1] and 0.3 nM in assay [2].
The corresponding values for `CC(=O)NC12CC3CC(C1)C(NC(=O)c1cnn(C(C)(C)C)c1-n1cccn1)C(C3)C2` (stereo not drawn) [Example 50, trans-2′-tert-Butyl-2′H-[1,3′]bipyrazolyl-4′-carboxylic acid (5-acetylamino-adamantan-2-yl)-amide] are 23.8 nM and 8 nM.
For the compound `Cn1ncc(C(=O)NC2C3CC4CC2CC(NS(C)(=O)=O)(C4)C3)c1-n1cccn1` (stereo not drawn) [Example 53, trans-2′-Methyl-2′H-[1,3′]bipyrazolyl-4′-carboxylic acid (5-methanesulfonylamino-adamantan-2-yl)-amide], the IC50 in assay [1] worked out at 76.9 nM; in assay [2], 6 nM.
As for `COCCOCCn1ncc(C(=O)N[C@H]2C3CC4CC2C[C@](O)(C4)C3)c1-n1cccn1` [Example 76, trans-2′-[2-(2-Methoxyethoxy)-ethyl]-2′H-[1,3′]bipryazolyl-4′-carboxylic acid (5-hydroxyadamantan-2-yl)-amide], the IC50 in assay [2] was 15.3 nM.
On the same count and under the same terms, in the case of `CC(C)(C)OCCn1ncc(C(=O)N[C@H]2C3CC4CC2C[C@](O)(C4)C3)c1C(F)(F)F` [Example 77, trans-1-(2-tert-Butoxyethyl)-5-trifluoromethyl-1H-pyrazole-4-carboxylic acid (5-hydroxy-adamantan-2-yl)-amide] it was 4.6 nM.
Regarding “trans-2′-(2-Methoxyethyl)-2′H-[1,3′]bipyrazolyl-4′-carboxylic acid (5-hydroxy-adamantan-2-yl-amide [Example 73]”, the half-maximal inhibitory concentration (IC50) in assay [1] is 22.9 nM; in assay [2] it was 0.6 nM.
The matching figures for “trans-2′-Methyl-2′H-[1,3′]bipyrazolyl-4′-carboxylic acid (5-acetylamino-adamantan-2-yl)-amide [Example 45]”: 48.2 nM and 5.9 nM.
